Laboratory results as given in US11471468B2, “Methods and systems for conditioning of particulate crystalline materials” (Pearl Therapeutics, Inc., priority 2013, dated 2022).

Tests used:
Type in all cases: physicochemical
[1] = Amorphous content by (dynamic) vapor sorption; settings: for Amorphous content by water vapor sorption isotherm / Amorphous content by ethanol vapor sorption isotherm: 25° C.; for Amorphous content by water vapor sorption isotherm: FIG. 13; for Amorphous content by ethanol vapor sorption isotherm: FIG. 9 / FIG. 11
Source text: (§1) A portion of the micronized GP was also conditioned using an in-process conditioning system wherein nitrogen conditioning gas was supplied to the in-process conditioning system and was controlled for flow rate, temperature and humidity. The conditioning gas was humidified through a droplet evaporation chamber after which it was directed to a mixing zone. In the mixing zone, the conditioning gas was mixed with the jet-milled aerosol comprising the micronized GP. The aerosol then entered a conditioning zone where annealing of the micronized GP occurred. The particle residence time through the conditioning zone was adjusted by means of the conditioning zone chamber geometry and/or the gas flow rate through the conditioning zone chamber. After passing through the conditioning zone, the micronized GP particles reached the cyclone-collection zone where the solid particles were separated from the gas phase and transported to a collection vessel. Upon completion of the batch processing, the collector was disengaged and transferred to a glove box for sampling. The sampling occurred in a <5% relative humidity environment. Samples were then analyzed for particle size distribution and amorphous content.
(§2) The amorphous content by vapor sorption and particle morphology for both batches were also assessed. FIG. 9 provides the ethanol vapor sorption isotherm at 25° C. for both batches of micronized budesonide.
(§3) The amorphous content by vapor sorption and particle morphology for both batches were also assessed. FIG. 11 provides the ethanol vapor sorption isotherm at 25° C. for both batches of micronized fluticasone.
All batches were also analyzed for amorphous content by dynamic vapor sorption using n=2 replicates per collector.
(§4) The amorphous content by vapor sorption and particle morphology for both batches of micronized sucrose were also assessed. FIG. 13 provides the water vapor sorption isotherm at 25° C. for both batches of micronized sucrose.

[2] = Particle size distribution by laser diffraction (Sympatec) after processing; settings: for Particle Size Distribution Initial X10: micronized sucrose; for D10 / D50 / D90 / Span: micronized fluticasone propionate
[3] = Physical stability: particle size distribution and fusing after 1-day exposure to 25° C. and 60% relative humidity; settings: micronized sucrose; for Physical Stability: 25° C./60% RH; for Stability of powder on exposure: Sucrose A by visual observation, Sucrose B exposed to 25° C./60% RH
Source text: When used to refer to the conditioned particulate material described herein, the terms “physical stability” and “physically stable” refer to a composition that is resistant to one or more of particle fusing, aggregation, agglomeration, and particle size changes. In certain embodiments, physical stability may be evaluated through exposing the particulate material to accelerated degradation conditions, such as increased temperature and/or humidity as described herein.
(§5) Both micronized sucrose batches were analyzed for particle size distribution by Sympatec laser diffraction.

[4] = Particle size distribution by laser diffraction (Sympatec) after processing; settings: for Particle Size Distribution Initial Span / Particle Size Distribution Initial X50 / Particle Size Distribution Initial X90: micronized sucrose; for Physical stability after micronization judged from size distribution: laser diffraction, Tables 4 and 5
Source text: When referred to herein, the term “optical diameter” indicates the size of a particle as measured using a laser diffraction particle size analyzer equipped with a dry powder dispenser (e.g., Sympatec GmbH, Clausthal-Zellerfeld, Germany).
as §1, §5

[5] = Particle morphology by electron micrograph / SEM; settings: FIG. 10 / FIG. 12 / FIG. 14
Experimental: as §2, §3, §4

[6] = Stability diagram (glass transition plasticization curve combined with sorption isotherm); settings: from stability diagram FIG. 18
Source text: Crystallization of an amorphous phase typically occurs rapidly when the amorphous material is exposed to conditions that exceed its glass transition temperature, usually twenty degrees Celsius above the glass transition temperature (Lechuga-Ballesteros, D.; Miller, D. P.; Zhang, J., Residual water in amorphous solids, measurement and effects on stability. In Progress in Amorphous Food and Pharmaceutical Systems, Levine, H., Ed. The Royal Society of Chemistry: London, 2002; pp 275-316). Exposure of amorphous material to temperature in excess of the glass transition can be achieved in the absence of any solvent by exposing the amorphous material to a stream of hot air above its glass transition temperature. However, the glass transition temperature is also a function of the fraction of solvent present in the amorphous material, an effect known as plasticization.
In addition, the solvent content held in an amorphous material is a function of the vapor concentration of the solvent surrounding the amorphous solid. The sorption isotherm of a given material is a representation of the amount of solvent in the amorphous material as a function of the solvent activity (which is proportional to the solvent vapor pressure to saturation solvent vapor pressure ratio) at a given temperature. […]

| Structure (SMILES) | Amorphous content by water vapor sorption isotherm [1] | Stability of powder on exposure [3] | Amorphous content by ethanol vapor sorption isotherm [1] | D10 [2] | D50 [2] | D90 [2] | Span [2] | Physical stability after micronization judged from size distribution [4] | Particle morphology by SEM, annealed compared with unannealed material [5] | further results |
| --- | --- | --- | --- | --- | --- | --- | --- | --- | --- | --- |
| OC[C@H]1O[C@@](CO)(O[C@H]2O[C@H](CO)[C@@H](O)[C@H](O)[C@H]2O)[C@@H](O)[C@@H]1O [Sucrose A, Sucrose] | remained substantially amorphous | fusing of the material | – | – | – | – | – | – | – | Water relative pressure at which weight loss is seen ([1]; water vapor sorption isotherm at 25° C.): 30 % p/po; Particle Size Distribution Initial X10 ([2]; listed as Sucrose 1): 0.5 μm; Physical Stability ([3]; listed as Sucrose 1): Unstable,; Particle Size Distribution Initial Span ([4]; listed as Sucrose 1): 2.4; Particle Size Distribution Initial X50 ([4]; listed as Sucrose 1): 1.7 μm; Particle Size Distribution Initial X90 ([4]; listed as Sucrose 1): 4.5 μm |
| CCC(=O)O[C@]1(C(=O)SCF)[C@H](C)C[C@H]2[C@@H]3C[C@H](F)C4=CC(=O)C=C[C@]4(C)[C@@]3(F)[C@@H](O)C[C@@]21C [Micronized Fluticasone propionate, Batch 2 (annealed)] | – | – | stable and showed no crystallization event | 0.5 μm | 1.4 μm | 3.1 μm | 1.9 | good physical stability | smoother surfaces and more rounded edges | – |
| CCC(=O)O[C@]1(C(=O)SCF)[C@H](C)C[C@H]2[C@@H]3C[C@H](F)C4=CC(=O)C=C[C@]4(C)[C@@]3(F)[C@@H](O)C[C@@]21C [Micronized Fluticasone propionate, Batch 1 (unannealed)] | – | – | remained substantially amorphous | 0.5 μm | 1.5 μm | 3.4 μm | 2.0 | agglomeration | – | Ethanol relative pressure at which weight loss is seen ([1]; ethanol vapor sorption isotherm at 25° C.): 60 % p/po |
| OC[C@H]1O[C@@](CO)(O[C@H]2O[C@H](CO)[C@@H](O)[C@H](O)[C@H]2O)[C@@H](O)[C@@H]1O [Sucrose B, Sucrose] | stable and showed no crystallization event | good stability | – | – | – | – | – | – | smoother surfaces and more rounded edges | Particle Size Distribution Initial X10 ([2]; listed as Sucrose 2): 0.6 μm; Physical Stability [3]: Stable,; Particle Size Distribution T = 1 day at 25° C./60% RH Span ([3]; T = 1 day at 25° C./60% RH): 1.9; Particle Size Distribution T = 1 day at 25° C./60% RH X10 ([3]; T = 1 day at 25° C./60% RH): 0.7 μm; Particle Size Distribution T = 1 day at 25° C./60% RH X50 ([3]; T = 1 day at 25° C./60% RH): 2.5 μm; Particle Size Distribution T = 1 day at 25° C./60% RH X90 ([3]; T = 1 day at 25° C./60% RH): 5.2 μm; Particle Size Distribution Initial Span ([4]; listed as Sucrose 2): 1.9; Particle Size Distribution Initial X50 ([4]; listed as Sucrose 2): 2.2 μm; Particle Size Distribution Initial X90 ([4]; listed as Sucrose 2): 4.9 μm |
| C[N+]1(C)CCC(OC(=O)C(O)(c2ccccc2)C2CCCC2)C1.[Br-] (stereo not drawn) [glycopyrrolate, 3-[(cyclopentylhydroxyphenylacetyl)oxy]-1,1-dimethylpyrrolidinium bromide] | – | – | – | – | – | – | – | – | – | RH required to promote annealing ([6]; at 60° C.): 10 % RH; RH at which fast crystallization of amorphous material will occur ([6]; in the range of 20-40° C.): > 50% |
